Experiments:
[1] = system: mice; details: cited from earlier work
[2] = Alkaloid feeding experiment, alkaloid abundance in tissues by LC-MS/MS; type: in vivo, Dendrobates tinctorius
Excerpt: Lab-reared (non-toxic) Dendrobates tinctorius were housed in terraria with live plants, a water pool, and a shelter. Ten adult females were size-matched, randomly assigned to control or experimental groups (N = 5 per group), and then housed individually. To measure the specific effects of PTX 251D compared to a background toxicity, the control group was fed 0.01% DHQ (Sigma-Aldrich, St. Louis, USA) in a solution of 1% EtOH and the experimental group was fed a solution of 0.01% DHQ and 0.01% PTX 251D (PepTech, Burlington, MA, USA) in a solution of 1% EtOH in water. Each frog was fed 15 μL each day for five days by pipetting the solution directly into the mouth between 10am-12pm. On the afternoon of the fifth day, frogs were euthanized by cervical transection and the dorsal skin, liver, intestines, and oocytes were dissected into Trizol (Thermo Fisher Scientific, Waltham, USA).
To isolate alkaloids, 0.3 mL of 100% EtOH was added to 1mL of organic layer from the Trizol RNA extraction, inverted 10 times, and stored at room temperature for 2–3 minutes to precipitate genomic DNA, which was pelleted by centrifugation at 2000g for 5 minutes at 4°C. Then, 300 μL of supernatant was transferred to a new microfuge tube. Proteins were precipitated by adding 900 μL of acetone, mixing by inversion for 10–15 seconds, incubating at room temperature for 10 min, and centrifuging at max speed for 10 min at 4°C. Then, 1 mL of the supernatant containing alkaloids was moved into a glass vial and stored at -20°C until dried down completely under a gentle nitrogen gas flow.
Samples were resuspended in 200 μl of methanol:chloroform 1:1 and 1 μM Nicotine-d3 (used as an internal standard). A 10-point standard curve was prepared in the same solution with DHQ and PTX 251D. A QE+ mass spectrometer coupled to an Ultimate3000 LC (ThermoFisher) was used for analysis. […] The gradient was 0% B for 1 min, then increased to 100% B in 14 min, followed by 5 min at 100% B and 3.5 min at 0% B. Data were quantified using accurate mass, using the standard curve for DHQ and PTX 251D for absolute quantification. aPTX 267A was identified by accurate mass and MS/MS fragmentation similarity to PTX.
R version 3.6.3 was used for all statistical analyses, and all plotting and statistics code is provided in a S1 File. There were instances in the LC-MS/MS data where the molecules of interest (DHQ, PTX 251D, or aPTX 267A) were not detected, and these were converted to zeros prior to statistical analyses and visualization. […] PTX 251D and DHQ were analyzed separately. The abundance of aPTX 267A was approximated using the area-under-the-curve divided by the internal nicotine standard, and as there is no standard for aPTX 267A, exact pmol values could not be calculated. […]

Structure (SMILES)	lethal dose (hyperactivity, convulsions, and death) ([1]; injected into mice)	lethal dose relative to that of PTX 251D ([1]; mice)	aPTX 267A abundance across tissues ([2]; DHQ+PTX feeding group)	aPTX 267A in the skin after PTX 251D feeding ([2]; DHQ+PTX feeding group vs DHQ-fed group, all individuals, area-under-the-curve divided by internal nicotine standard)	DHQ abundance across tissue types ([2]; fed orally daily for five days, skin, liver, intestines, oocytes)
CCCCC(C)C=C1CN2CCCC2C(C)(O)C1O (centres unmarked) [aPTX 267A, allopumiliotoxin (aPTX 267A)]	2 mg/kg	five times lower	greater abundance in the skin than the oocytes	higher levels than the DHQ-fed group	–
C1CCC2NCCCC2C1 (centres unmarked) [DHQ, reference compound]	–	–	–	–	highest levels occurring in the liver and skin

— publication PMC8916643, “Molecular physiology of pumiliotoxin sequestration in a poison frog” (PLoS ONE, 2022)
